In brackets after ≈: the same amount, converted by molar mass. Activity calls are given as the source filed them. The calls are words filed in the database; no cut-off is given here.
What was measured:
Streptococcus pneumoniae [1] = experiment: Antibacterial activity against multidrug-resistant Streptococcus pneumoniae clinical isolate assessed as susceptibility level by broth microdilution method; assay type: functional
Streptococcus pneumoniae [2] = experiment: Antibacterial activity against penicillin resistant Streptococcus pneumoniae clinical isolate assessed as susceptibility level by broth microdilution method; assay type: functional
Streptococcus pneumoniae [3] = experiment: Antibacterial activity against penicillin intermediate Streptococcus pneumoniae clinical isolate assessed as susceptibility level by broth microdilution method; assay type: functional
Streptococcus viridans [4] = experiment: Antibacterial activity against Streptococcus viridans clinical isolate by broth microdilution method; assay type: functional
[5] = test system: Streptococcus constellatus; experiment: Antibacterial activity against Streptococcus constellatus clinical isolate by broth microdilution method; assay type: functional
Streptococcus oralis [6] = experiment: Antibacterial activity against Streptococcus oralis clinical isolate by broth microdilution method; assay type: functional
[7] = test system: Streptococcus intermedius; experiment: Antibacterial activity against Streptococcus intermedius clinical isolate by broth microdilution method; assay type: functional
Streptococcus mitis [8] = experiment: Antibacterial activity against Streptococcus mitis clinical isolate by broth microdilution method; assay type: functional
Streptococcus agalactiae [9] = experiment: Antibacterial activity against Streptococcus agalactiae group B clinical isolate by broth microdilution method; assay type: functional
Streptococcus pyogenes [10] = experiment: Antibacterial activity against Streptococcus pyogenes group A clinical isolate by broth microdilution method; assay type: functional
Streptococcus pneumoniae [11] = experiment: Antibacterial activity against multidrug-resistant Streptococcus pneumoniae clinical isolate by broth microdilution method; assay type: functional
Streptococcus pneumoniae [12] = experiment: Antibacterial activity against penicillin resistant Streptococcus pneumoniae clinical isolate by broth microdilution method; assay type: functional
Streptococcus pneumoniae [13] = experiment: Antibacterial activity against penicillin intermediate Streptococcus pneumoniae clinical isolate by broth microdilution method; assay type: functional
Streptococcus viridans [14] = experiment: Antibacterial activity against Streptococcus viridans clinical isolate assessed as susceptibility level by broth microdilution method; assay type: functional
[15] = test system: Streptococcus constellatus; experiment: Antibacterial activity against Streptococcus constellatus clinical isolate assessed as susceptibility level by broth microdilution method; assay type: functional
Streptococcus oralis [16] = experiment: Antibacterial activity against Streptococcus oralis clinical isolate assessed as susceptibility level by broth microdilution method; assay type: functional
[17] = test system: Streptococcus intermedius; experiment: Antibacterial activity against Streptococcus intermedius clinical isolate assessed as susceptibility level by broth microdilution method; assay type: functional
Streptococcus mitis [18] = experiment: Antibacterial activity against Streptococcus mitis clinical isolate assessed as susceptibility level by broth microdilution method; assay type: functional
Streptococcus agalactiae [19] = experiment: Antibacterial activity against Streptococcus agalactiae group B clinical isolate assessed as susceptibility level by broth microdilution method; assay type: functional
Streptococcus pyogenes [20] = experiment: Antibacterial activity against Streptococcus pyogenes group A clinical isolate assessed as susceptibility level by broth microdilution method; assay type: functional

Compound | Activity (Streptococcus pneumoniae [3]) | MIC (Streptococcus viridans [4]) | MIC50 (Streptococcus viridans [4]) | MIC90 (Streptococcus viridans [4]) | MIC [5] | MIC50 [5] | MIC90 [5] | MIC (Streptococcus oralis [6]) | MIC50 (Streptococcus oralis [6]) | MIC90 (Streptococcus oralis [6]) | MIC [7] | MIC50 [7] | MIC90 [7] | MIC (Streptococcus mitis [8]) | MIC50 (Streptococcus mitis [8]) | MIC90 (Streptococcus mitis [8]) | MIC50 (Streptococcus agalactiae [9]) | MIC90 (Streptococcus agalactiae [9]) | MIC50 (Streptococcus pyogenes [10]) | MIC90 (Streptococcus pyogenes [10]) | further results
CO/N=C(\C(=O)N[C@@H]1C(=O)N2C(C(=O)O)=C(COC(N)=O)CS[C@H]12)c1ccco1 [CEFUROXIME] | 17% | ≤ 0.12 µg/mL | inactive | inactive | ≤ 0.12 µg/mL | inactive | inactive | ≤ 0.12 µg/mL | inactive | inactive | ≤ 0.12 µg/mL | inactive | inactive | ≤ 0.12 µg/mL | inactive | inactive | ≤ 0.12 µg/mL | ≤ 0.12 µg/mL | ≤ 0.12 µg/mL | 0.25 µg/mL (≈ 0.589 µM) | Activity (Streptococcus pneumoniae [1]): 2%; Activity (Streptococcus pneumoniae [2]): 2%; MIC (Streptococcus agalactiae [9]): ≤ 0.12 µg/mL; MIC (Streptococcus pyogenes [10]): ≤ 0.12 µg/mL; MIC50 (Streptococcus pneumoniae [11]): > 4 µg/mL; MIC90 (Streptococcus pneumoniae [11]): > 4 µg/mL; MIC50 (Streptococcus pneumoniae [12]): > 4 µg/mL; MIC90 (Streptococcus pneumoniae [12]): > 4 µg/mL; MIC50 (Streptococcus pneumoniae [13]): 2 µg/mL (≈ 4.71 µM); MIC90 (Streptococcus pneumoniae [13]): 4 µg/mL (≈ 9.43 µM)
CN(C)[C@@H]1C(O)=C(C(N)=O)C(=O)[C@@]2(O)C(O)=C3C(=O)c4c(O)cccc4[C@@](C)(O)[C@H]3C[C@@H]12 [TETRACYCLINE] | 67% | 0.12 µg/mL (≈ 0.27 µM) | inactive | inactive | 0.12 µg/mL (≈ 0.27 µM) | inactive | inactive | 0.12 µg/mL (≈ 0.27 µM) | inactive | inactive | 0.12 µg/mL (≈ 0.27 µM) | inactive | inactive | 0.12 µg/mL (≈ 0.27 µM) | inactive | inactive | > 8 µg/mL | > 8 µg/mL | 0.12 µg/mL (≈ 0.27 µM) | 4 µg/mL (≈ 9 µM) | Activity (Streptococcus viridans [14]): 75%; Activity [15]: 75%; Activity (Streptococcus oralis [16]): 75%; Activity [17]: 75%; Activity (Streptococcus mitis [18]): 75%; Activity (Streptococcus agalactiae [19]): 16%; Activity (Streptococcus pyogenes [20]): 89%; Activity (Streptococcus pneumoniae [1]): 37%; Activity (Streptococcus pneumoniae [2]): 41%; MIC50 (Streptococcus pneumoniae [11]): > 8 µg/mL; MIC50 (Streptococcus pneumoniae [12]): > 8 µg/mL; MIC50 (Streptococcus pneumoniae [13]): 0.12 µg/mL (≈ 0.27 µM); MIC90 (Streptococcus pneumoniae [13]): > 8 µg/mL
CCC[C@@H]1C[C@@H](C(=O)N[C@@H]([C@H]2O[C@H](SC)[C@H](O)[C@@H](O)[C@H]2O)[C@H](C)Cl)N(C)C1 [CLINDAMYCIN] | 83% | ≤ 0.03 µg/mL | inactive | inactive | ≤ 0.03 µg/mL | inactive | inactive | ≤ 0.03 µg/mL | inactive | inactive | ≤ 0.03 µg/mL | inactive | inactive | ≤ 0.03 µg/mL | inactive | inactive | 0.06 µg/mL (≈ 0.141 µM) | > 0.25 µg/mL | ≤ 0.03 µg/mL | 0.06 µg/mL (≈ 0.141 µM) | Activity (Streptococcus viridans [14]): 88%; Activity [15]: 88%; Activity (Streptococcus oralis [16]): 88%; Activity [17]: 88%; Activity (Streptococcus mitis [18]): 88%; Activity (Streptococcus agalactiae [19]): 86%; Activity (Streptococcus pyogenes [20]): 98%; Activity (Streptococcus pneumoniae [1]): 73%; Activity (Streptococcus pneumoniae [2]): 76%; MIC (Streptococcus pyogenes [10]): ≤ 0.03 µg/mL; MIC50 (Streptococcus pneumoniae [11]): 0.06 µg/mL (≈ 0.141 µM); MIC90 (Streptococcus pneumoniae [11]): > 0.25 µg/mL; MIC50 (Streptococcus pneumoniae [12]): 0.06 µg/mL (≈ 0.141 µM); MIC90 (Streptococcus pneumoniae [12]): > 0.25 µg/mL; MIC (Streptococcus pneumoniae [13]): 0.06 µg/mL (≈ 0.141 µM); MIC50 (Streptococcus pneumoniae [13]): 0.06 µg/mL (≈ 0.141 µM); MIC90 (Streptococcus pneumoniae [13]): 0.5 µg/mL (≈ 1.18 µM)
CC1(C)S[C@@H]2[C@H](NC(=O)Cc3ccccc3)C(=O)N2[C@H]1C(=O)O [PENICILLIN G] | 0% | ≤ 0.06 µg/mL | inactive | inactive | ≤ 0.06 µg/mL | inactive | inactive | ≤ 0.06 µg/mL | inactive | inactive | ≤ 0.06 µg/mL | inactive | inactive | ≤ 0.06 µg/mL | inactive | inactive | ≤ 0.06 µg/mL | ≤ 0.06 µg/mL | ≤ 0.06 µg/mL | ≤ 0.06 µg/mL | Activity (Streptococcus viridans [14]): 62%; Activity [15]: 62%; Activity (Streptococcus oralis [16]): 62%; Activity [17]: 62%; Activity (Streptococcus mitis [18]): 62%; Activity (Streptococcus agalactiae [19]): 96%; Activity (Streptococcus pyogenes [20]): 93%; MIC (Streptococcus agalactiae [9]): ≤ 0.06 µg/mL; MIC (Streptococcus pyogenes [10]): ≤ 0.06 µg/mL; MIC50 (Streptococcus pneumoniae [11]): 2 µg/mL (≈ 5.98 µM); MIC90 (Streptococcus pneumoniae [11]): > 2 µg/mL; MIC (Streptococcus pneumoniae [12]): 2 µg/mL (≈ 5.98 µM); MIC50 (Streptococcus pneumoniae [12]): 2 µg/mL (≈ 5.98 µM); MIC90 (Streptococcus pneumoniae [12]): > 2 µg/mL; MIC50 (Streptococcus pneumoniae [13]): 1 µg/mL (≈ 2.99 µM); MIC90 (Streptococcus pneumoniae [13]): 1 µg/mL (≈ 2.99 µM)
C[C@H]1COc2c(N3CCN(C)CC3)c(F)cc3c(=O)c(C(=O)O)cn1c23.C[C@H]1COc2c(N3CCN(C)CC3)c(F)cc3c(=O)c(C(=O)O)cn1c23.O [LEVOFLOXACIN] | 92% | ≤ 0.12 µg/mL | inactive | inactive | ≤ 0.12 µg/mL | inactive | inactive | ≤ 0.12 µg/mL | inactive | inactive | ≤ 0.12 µg/mL | inactive | inactive | ≤ 0.12 µg/mL | inactive | inactive | 0.5 µg/mL | 1 µg/mL | 0.5 µg/mL | 1 µg/mL | Activity (Streptococcus viridans [14]): 100%; Activity [15]: 100%; Activity (Streptococcus oralis [16]): 100%; Activity [17]: 100%; Activity (Streptococcus mitis [18]): 100%; Activity (Streptococcus agalactiae [19]): 99%; Activity (Streptococcus pyogenes [20]): 98%; Activity (Streptococcus pneumoniae [1]): 95%; Activity (Streptococcus pneumoniae [2]): 97%; MIC50 (Streptococcus pneumoniae [11]): 0.5 µg/mL; MIC90 (Streptococcus pneumoniae [11]): 1 µg/mL; MIC50 (Streptococcus pneumoniae [12]): 0.5 µg/mL; MIC90 (Streptococcus pneumoniae [12]): 1 µg/mL; MIC50 (Streptococcus pneumoniae [13]): 0.5 µg/mL; MIC90 (Streptococcus pneumoniae [13]): 1 µg/mL
CO/N=C(\C(=O)N[C@@H]1C(=O)N2C(C(=O)O)=C(CSc3nc(=O)c(O)nn3C)CS[C@H]12)c1csc(N)n1 [CEFTRIAXONE] | 92% | 0.03 µg/mL (≈ 0.0541 µM) | inactive | inactive | 0.03 µg/mL (≈ 0.0541 µM) | inactive | inactive | 0.03 µg/mL (≈ 0.0541 µM) | inactive | inactive | 0.03 µg/mL (≈ 0.0541 µM) | inactive | inactive | 0.03 µg/mL (≈ 0.0541 µM) | inactive | inactive | 0.06 µg/mL (≈ 0.108 µM) | 0.06 µg/mL (≈ 0.108 µM) | ≤ 0.015 µg/mL | 0.12 µg/mL (≈ 0.216 µM) | Activity (Streptococcus viridans [14]): 75%; Activity [15]: 75%; Activity (Streptococcus oralis [16]): 75%; Activity [17]: 75%; Activity (Streptococcus mitis [18]): 75%; Activity (Streptococcus agalactiae [19]): 96%; Activity (Streptococcus pyogenes [20]): 92%; Activity (Streptococcus pneumoniae [1]): 77%; Activity (Streptococcus pneumoniae [2]): 73%; MIC (Streptococcus pyogenes [10]): ≤ 0.015 µg/mL; MIC50 (Streptococcus pneumoniae [11]): 1 µg/mL (≈ 1.8 µM); MIC90 (Streptococcus pneumoniae [11]): 2 µg/mL (≈ 3.61 µM); MIC50 (Streptococcus pneumoniae [12]): 1 µg/mL (≈ 1.8 µM); MIC90 (Streptococcus pneumoniae [12]): 2 µg/mL (≈ 3.61 µM); MIC50 (Streptococcus pneumoniae [13]): 0.5 µg/mL (≈ 0.902 µM); MIC90 (Streptococcus pneumoniae [13]): 1 µg/mL (≈ 1.8 µM)
O=C(O)c1cn(C2CC2)c2cc(N3CCNCC3)c(F)cc2c1=O |  |  |  |  |  |  |  |  |  |  |  |  |  |  |  |  |  |  |  |  | MIC50 (Enterococcus faecalis): inactive; MIC90 (Enterococcus faecalis): inactive

— ChEMBL document CHEMBL1275440, “In vitro activity of telavancin against resistant gram-positive bacteria” (2008)
